These results are taken from patent publication US12617813B2, “Glycosylated histone deacetylase inhibitors and methods of making and using the same” (Georgia Tech Research Corporation, priority 2020, dated 2026).

The structures appear in SMILES notation.

One data set relates to Hep-G2 cell line. Kind of data set: Apoptosis via caspase 3 activation (Western blot) in Hep-G2. In kind it is cell-based. The note with it: Hep-G2, 18 h; STR compounds 10 and 20 μM, SAHA 5 μM (FIG. 2). As for the experimental part:
Actin was used to control for protein loading. Cells were treated with DMSO or 0.1% DMSO solution of SAHA (5 μM), STR-V-53 (10 and 20 μM), or STR-I-195 (10 and 20 μM) for 18 h. (a) Cropped gel image showing upregulation on cleaved caspase 3 (clv-caspase 3) relative to the DMSO control. (b) Quantification of relative levels of clv-caspase 3. (Bars show mean plus standard deviation; *P<0.0332; **P<0.0021; ***P<0.0002; ****P<[…]).

In another data set the test system is Vero cell line. The data set can be described thus: Apoptosis via caspase 3 activation (Western blot) in Vero. In kind it is cell-based. The note with it: Vero (non-transformed model), 18 h; STR compounds 10 and 20 μM, SAHA 5 μM (FIG. 3). As for the experimental part: Actin was used to control for protein loading. Cells were treated with DMSO or 0.1% DMSO solution of SAHA (5 μM), STR-V-53 (10 and 20 μM), or STR-I-195 (10 and 20 μM) for 18 h. Quantification of gel bands are shown below the gel.
On the technique in general: A western blot detects proteins with antibodies after separation by electrophoresis.

The target in the next data set is HDAC1 (Homo sapiens, UniProt Q13547). Kind of data set: HDAC inhibition, HDAC1. The data set is classed as biochemical.
Sequence of HDAC1 (Q13547 whole entry): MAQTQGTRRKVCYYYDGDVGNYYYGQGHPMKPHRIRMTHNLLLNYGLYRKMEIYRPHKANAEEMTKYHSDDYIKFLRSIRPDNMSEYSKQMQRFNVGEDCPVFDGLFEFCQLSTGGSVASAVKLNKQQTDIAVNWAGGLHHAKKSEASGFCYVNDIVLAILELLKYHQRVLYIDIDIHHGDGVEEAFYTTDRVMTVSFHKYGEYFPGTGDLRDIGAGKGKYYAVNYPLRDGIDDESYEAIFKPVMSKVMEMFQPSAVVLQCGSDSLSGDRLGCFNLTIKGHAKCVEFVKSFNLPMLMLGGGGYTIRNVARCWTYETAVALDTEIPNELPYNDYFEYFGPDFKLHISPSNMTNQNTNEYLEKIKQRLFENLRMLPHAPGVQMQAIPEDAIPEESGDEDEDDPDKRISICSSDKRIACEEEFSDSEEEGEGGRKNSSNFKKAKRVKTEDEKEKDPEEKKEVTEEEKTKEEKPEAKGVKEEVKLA
The next data set concerns the target HDAC2 (Homo sapiens, UniProt Q92769). The data set can be described thus: HDAC inhibition, HDAC2. The data set is classed as biochemical.
A further data set deals with T1, HDAC6 (Homo sapiens, UniProt Q9UBN7).
T1 sequence (Q9UBN7 1-1215): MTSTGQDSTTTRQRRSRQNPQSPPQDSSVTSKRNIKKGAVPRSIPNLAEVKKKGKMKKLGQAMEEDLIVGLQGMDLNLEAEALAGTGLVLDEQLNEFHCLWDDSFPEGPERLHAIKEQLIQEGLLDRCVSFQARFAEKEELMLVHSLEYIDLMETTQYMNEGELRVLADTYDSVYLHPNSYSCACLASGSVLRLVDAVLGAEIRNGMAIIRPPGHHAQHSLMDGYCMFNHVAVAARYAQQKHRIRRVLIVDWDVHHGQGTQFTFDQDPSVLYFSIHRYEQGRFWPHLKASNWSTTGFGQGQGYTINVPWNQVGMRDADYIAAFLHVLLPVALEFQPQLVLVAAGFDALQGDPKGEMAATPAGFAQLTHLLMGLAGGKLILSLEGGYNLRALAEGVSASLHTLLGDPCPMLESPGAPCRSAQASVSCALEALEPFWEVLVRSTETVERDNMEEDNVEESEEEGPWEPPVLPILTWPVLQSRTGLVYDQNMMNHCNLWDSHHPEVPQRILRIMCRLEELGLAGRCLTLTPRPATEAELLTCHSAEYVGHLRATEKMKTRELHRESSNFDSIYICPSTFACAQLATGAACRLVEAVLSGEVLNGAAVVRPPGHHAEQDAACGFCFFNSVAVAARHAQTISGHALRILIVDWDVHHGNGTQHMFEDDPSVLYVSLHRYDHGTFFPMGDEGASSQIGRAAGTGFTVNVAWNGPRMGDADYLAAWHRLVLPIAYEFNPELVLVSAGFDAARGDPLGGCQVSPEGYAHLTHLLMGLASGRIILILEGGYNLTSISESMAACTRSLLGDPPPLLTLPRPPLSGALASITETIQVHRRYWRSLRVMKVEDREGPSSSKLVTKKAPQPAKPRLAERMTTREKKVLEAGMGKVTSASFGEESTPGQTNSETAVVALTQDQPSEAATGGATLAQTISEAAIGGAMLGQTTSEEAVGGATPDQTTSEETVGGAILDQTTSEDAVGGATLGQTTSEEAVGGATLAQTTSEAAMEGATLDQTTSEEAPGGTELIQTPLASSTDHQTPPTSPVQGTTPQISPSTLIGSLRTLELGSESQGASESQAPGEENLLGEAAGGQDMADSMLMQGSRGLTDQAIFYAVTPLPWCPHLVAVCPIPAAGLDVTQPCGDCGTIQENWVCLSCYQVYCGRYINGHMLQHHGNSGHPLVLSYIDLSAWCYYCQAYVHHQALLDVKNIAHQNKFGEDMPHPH
The data set can be described thus: HDAC inhibition, HDAC6. The data set is classed as biochemical.

For a further data set, the target named is T2, HDAC8 (Homo sapiens, UniProt Q9BY41).
T2 sequence (Q9BY41 1-377): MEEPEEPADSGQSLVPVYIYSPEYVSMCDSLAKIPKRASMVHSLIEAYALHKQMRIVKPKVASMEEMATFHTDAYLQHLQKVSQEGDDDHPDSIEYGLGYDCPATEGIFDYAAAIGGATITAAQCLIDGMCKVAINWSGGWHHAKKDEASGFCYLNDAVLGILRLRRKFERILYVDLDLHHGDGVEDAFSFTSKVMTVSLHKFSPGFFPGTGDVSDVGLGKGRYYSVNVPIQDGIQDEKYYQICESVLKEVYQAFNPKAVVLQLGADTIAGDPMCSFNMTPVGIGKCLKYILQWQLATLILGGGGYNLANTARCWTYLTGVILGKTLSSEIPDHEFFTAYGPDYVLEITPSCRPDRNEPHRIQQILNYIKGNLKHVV
The data set can be described thus: HDAC inhibition, HDAC8. In kind it is biochemical.

Data set [1] has as its system acetylated tubulin and histone H4. Kind of data set: Western blot of on-target effect (HDAC inhibition) in Hep-G2 cells. In kind it is cell-based. The note with it: Hep-G2, 1.25 and 2.5 μM, 5 h, Western blot (FIG. 1). The procedure:
SAHA was used as positive control while GAPDH was used to control for protein loading. (1a) Hep-G2 treated with DMSO or 0.1% DMSO solution of SAHA (1.25 μM), STR-V-114 (1.25 μM, 2.5 μM) and STR-V-53 (1.25 μM, 2.5 μM). (1b) Hep-G2 treated with DMSO or 0.1% DMSO solution of SAHA (0.5 μM, 1.25 μM) and STR-I-195 (1.25 μM, 2.5 μM). Cell were treated for 5 h before lysis. Quantifications of gel bands are shown below each gel.

Data set [2] concerns Hep-G2. Kind of data set: Cell cycle analysis in Hep-G2. In kind it is cell-based. The note with it: Hep-G2, 15 μM, 48 h (FIG. 4). As for the experimental part: Hep-G2 was cultured in all) cm petri dish until 80% confluence. The cell was serum starved overnight before drug treatment. Subsequently, cells were treated with 10 mL of 0.1% DMSO medium, 0.1% DMSO solution of SAHA (5 μM) or STR-V-53 (15 μM), respectively for 48 h. (a) The control group of Hep-G2 (1); SAHA (5 μM) treated group (2); and STR-V-53 (15 μM) treated group (3). […] (b) Cell distribution in each stage. (c) Analysis of the percentage cell population in cell cycle stages.

Data set [3] deals with Hep-G2. The data set can be described thus: Cytotoxicity with GLUT2 blockage by Phloretin in Hep-G2. The note with it: Hep-G2 treated with Phloretin 24 h prior to incubation (FIG. 5). In kind it is cell-based. As for the experimental part:
Hep-G2 and VERO were treated with Phloretin (Ph) for 24 h prior to incubation with STR-V-53 or SAHA. (a) Hep-G2 treated by STR-V-53 with or without Ph. (b) Hep-G2 treated by SAHA with or without Ph. (c) VERO treated by STR-V-53 with or without Ph. (d) VERO treated with SAHA with or without Ph.

As usually defined, the IC50 is the concentration that gives 50% inhibition. A high value points to weaker potency in that assay.

Sequence of HDAC2 (Q92769 whole entry): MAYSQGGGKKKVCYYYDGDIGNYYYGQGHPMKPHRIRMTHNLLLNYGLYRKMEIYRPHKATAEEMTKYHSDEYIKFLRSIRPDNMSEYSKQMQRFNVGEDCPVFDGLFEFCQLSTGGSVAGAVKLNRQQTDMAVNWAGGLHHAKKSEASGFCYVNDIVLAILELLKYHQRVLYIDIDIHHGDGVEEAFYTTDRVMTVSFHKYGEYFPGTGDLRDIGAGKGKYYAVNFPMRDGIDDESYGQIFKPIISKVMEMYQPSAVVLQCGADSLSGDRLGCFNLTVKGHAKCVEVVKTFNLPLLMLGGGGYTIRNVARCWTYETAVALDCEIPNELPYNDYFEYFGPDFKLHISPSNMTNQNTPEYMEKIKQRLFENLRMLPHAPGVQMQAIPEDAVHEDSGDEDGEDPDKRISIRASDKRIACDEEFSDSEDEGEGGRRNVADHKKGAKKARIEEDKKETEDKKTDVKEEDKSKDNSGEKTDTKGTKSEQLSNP

For `O=C(CCCCCCC(=O)Nc1ccccc1)NO` [SAHA, reference compound], the “apoptosis via caspase 3 activation (clv-caspase 3)” value (“apoptosis via caspase 3 activation” below) with Hep-G2 cell line was “induced apoptosis”. In addition, the “apoptosis (clv-caspase 3)” value in the data set on Vero cell line is given as “induced apoptosis”.
For `O=C(CCCCCCn1cc(-c2ccc3cc(O[C@H]4O[C@H](CO)[C@@H](O)[C@H](O)[C@H]4O)ccc3c2)nn1)NO` [STR-V-114, N-hydroxy-7-(4-(6-(((2R,3R,4S,5S,6R)-3,4,5-trihydroxy-6-(hydroxymethyl)-tetrahydro-211-pyran-2-yl)oxy)naphthalen-2-yl)-1H-1,2,3-triazol-1-yl)heptanamide], the IC50 was found to be 20.3 nM at HDAC1, 61.5 nM on HDAC2, 4.5 nM at HDAC6 and 2130 nM at HDAC8. In addition, in data set [1], the “on-target effect (HDAC inhibition): acetylated tubulin and histone H4 levels” value (from here on “on-target effect (HDAC inhibition)”) is “upregulation of acetylated tubulin and histone H4”.
For `O=C(CCCCCCn1cc(-c2ccc(OC3O[C@H](CO)[C@@H](O)[C@H](O)C3O)cc2)nn1)NO` (stereo in doubt) [STR-I-195, N-hydroxy-7-(4-(4-(((2S,3R,4S,5S,6R)-3,4,5-trihydroxy-6-(hydroxymethyl)-tetrahydro-2H-pyran-2-yl)oxy)phenyl)-1H-1,2,3-triazol-1-yl)heptanamide], the IC50 against HDAC1 turned out to be 14.6 nM; against HDAC2 it was 29.1 nM; against HDAC6 it was 2.51 nM; against HDAC8 it was 464 nM. For the same compound, the “on-target effect (HDAC inhibition)” value in data set [1] was “upregulation of acetylated tubulin and histone H4”. Besides, the “apoptosis via caspase 3 activation” value in the data set with Hep-G2 cell line was “induced apoptosis”. Moreover, the “apoptosis (clv-caspase 3)” value with Vero cell line is reported as “did not induce apoptosis”.
Take `O=C(/C=C/c1ccc(O[C@H]2O[C@H](CO)[C@@H](O)[C@H](O)[C@H]2O)cc1)NO` [STR-V-121]: the IC50 amounted to 3840 nM against HDAC1, 6500 nM on HDAC2, 75.4 nM against HDAC6 and 1820 nM against HDAC8.
Turning to `O=C(CCCCCCn1cc(-c2ccc(O[C@H]3O[C@H](CO)[C@@H](O)[C@H](O)[C@H]3O)cc2)nn1)NO` [STR-V-53], the IC50 on HDAC1 is 24.3 nM; against HDAC2, 60.1 nM; at HDAC6 it was 3.43 nM; against HDAC8 it was 843 nM. In addition, the “on-target effect (HDAC inhibition)” value in data set [1] is “upregulation of acetylated tubulin and histone H4”. In addition, the “apoptosis via caspase 3 activation” value in the data set on Hep-G2 cell line is on record as “induced apoptosis”. For the same compound, in the data set with Vero cell line, the “apoptosis (clv-caspase 3)” value was “did not induce apoptosis”. Besides, the “effect on cell cycle” value in the data set with Hep-G2 [2] is on record as “cell cycle arrest”. Also, the “effect of GLUT2 blockage on cytotoxicity” value with Hep-G2 [3] is on record as “attenuates the cytotoxicity”.
With `O=C(/C=C/c1ccc2cc(O[C@H]3O[C@H](CO)[C@@H](O)[C@H](O)[C@H]3O)ccc2c1)NO` [STR-V-115], the IC50 against HDAC1 turned out to be 427 nM; on HDAC2, 1030 nM; against HDAC6, 16.5 nM; at HDAC8 it was 461 nM.
